Assay results as given in US20230123334A1, “AMINO LIPID COMPOUND, PREPARATION METHOD THEREFOR, AND APPLICATION THEREOF” (SHENZHEN SHENXIN BIOTECHNOLOGY CO., LTD., priority 2020, published 2023).

Experiments:
Assay type in all cases: cell-based
[1] = system: HEK293 cells; test: Preliminary screening as DNA vectors, GFP transfection of HEK293 cells; conditions: HEK293 cells; lipid/DOPE liposome with 75 ng plasmid DNA (psin-EGFP-IRES-Puro); number of cells expressing GFP divided by total number of nuclei (Hoechst)
Outline: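 Lipid + DOPE liposomes (NaOAc, pH 5.6) complexed w/ 75 ng psin-EGFP-IRES-Puro, 30 min RT; added to 3-5×10^4 HEK293/well, 37° C. Hoechst 0.2 μg/mL at 20-24 h, imaged after further 20-24 h. Efficiency = GFP+ cells / total nuclei.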

[2] = system: HEK293 cells; test: Preliminary screening as mRNA vectors, EGFP mRNA transfection of HEK293 cells; conditions: HEK293 cells, 96-well plates, EGFP mRNA 50 ng per well; percentage of GFP fluorescent cells relative to total number of cells (Hoechst)
Outline: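 Each well of HEK293 cells received 50 ng of EGFP mRNA. Efficiency was expressed as percent GFP-expressing cells over Hoechst-defined total cell number.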

[3] = system: Hela cells; test: Transfection of Hela cell line, DNA vectors; conditions: 75 ng plasmid DNA, GFP cells / total cells
Method: 1. The compound (0.01 mmol) prepared in Example 1 was dissolved in 1 mL of anhydrous ethanol. After ultrasonically dissolved, 10 μL of the resultant amino lipid solution in ethanol was taken and mixed with 5 μL of DOPE solution in ethanol (0.01 m), and then to the obtained mixture was added 35 μL of 0.2M sodium acetate buffer (pH 5.6), and 50 μL of liposome solution was prepared by vortex at a constant rotating speed for 30 s. 4 μL was taken from the 50 μL liposome solution and added to 46 μL of 0.02M sodium acetate buffer (pH 5.6), and the final liposome solution was formed by vortex at a constant rotating speed for 30 s. 5 μL was taken from the final liposome solution and mixed with 75 ng plasmid DNA (psin-EGFP-IRES-Puro, Clontech) dissolved in 5 μL of 0.02 M sodium acetate buffer, and was allowed to stay at room temperature for 30 min to form a lipid/DNA transfection complex.
2. 10 μL of the lipid/DNA transfection complex was incubated at room temperature for 30 min, followed by addition of 90 μL of fresh resuspended cells (3-5×10^4 cells) and mixing with a pipette. 100 μL of cells+lipid/DNA complex was transferred to separate wells of a 96-well culture plate immediately, and placed in an incubator containing 5% CO2 at 37° C.
3. Hoechst33258 (Invitrogen) was added at a final concentration of 0.2 μg/mL to the cells 20 to 24 hours after initial cell transfection, and cultured in darkness at 37° C. for 15 min. Afterwards, the cells were washed once with a PBS solution, and then added with medium for culture for 20 to 24 h.
4. The cells were placed in a high-throughput confocal microscope (Molecular Devices ImageXpress), and four visual fields of the image of the cells were captured for each well, and images at three laser wavelengths were captured for each sample: bright field images of cells (FIG. 2(a) and FIG. 2(b)), Hoechst-staining images showing total nuclei (FIG. 2(c) and FIG. 2(d)) and GFP images showing success in transfection with the plasmid DNA and the expression of GFP (FIG. 2(e) and FIG. 2(f)). MetaXpress software was used to separately count the cells in the Hoechst-staining images and GFP images, and then the number of cells expressing GFP was divided by the total number of nuclei to give the absolute cell transfection efficiency. The absolute transfection efficiency was calculated as follows: […]
(§1) Cell line: Hela cells (ATCC 35241)
(§2) Medium: DMEM supplemented with 10% fetal bovine serum (Invitrogen)
(§3) Screening: cell transfection on 96-well plates
(§4) Detection (readout): percentage of the number of GFP fluorescent cells relative to the total number of cells (the total number of cells was determined using nucleus dye Hoechst). Lipofectamine2000 (Invitrogen) was used as the positive control, according to the manufacturer's instructions.
Method: the experimental method was basically the same with Example 4.

[4] = system: Hela cells; test: Transfection of Hela cell line, mRNA vectors; conditions: 50 ng EGFP mRNA per well
Method: as §1, §2, §3
as §4, with “Hoechst). A commercially available liposome transfection reagent” for “Hoechst).”, “control group,” for “control,”
Method: the experimental method was basically the same with Example 4, and the mass of EGFP mRNA for transfection was 50 ng per well.

| Structure (SMILES) | Absolute DNA transfection efficiency in HEK293 cells [1] | Absolute mRNA transfection efficiency in HEK293 cells [2] | Absolute DNA transfection efficiency in Hela cells [3] | Absolute mRNA transfection efficiency in Hela cells [4] |
| --- | --- | --- | --- | --- |
| CCCCCCCCCCCCCCSc1nc(NCCN(CC)CC)nc(SCCCCCCCCC)n1 [Compound S9S14D7] | 12.5% | 1.5% | 6.5% | 6.2% |
| CCCCCCCCCCCCSc1nc(NCCN(CC)CC)nc(SCCCCCCCCC)n1 [Compound S9S12D7] | 5.3% | 3.4% | 2.7% | 2.7% |
| CCCCCCCCCCCCCCCSc1nc(NCCN(C)C)nc(SCCCCCCCCC)n1 [Compound S9S15D1] | 2.1% | 0.0% | 1.3% | 1.3% |
| CCCCCCCCCCCCSc1nc(NCCN2CCOCC2)nc(SCCCCCCCCC)n1 [Compound S9S12D2] | 16.7% | 0.0% | 8.5% | 8.5% |
| CCCCCCCCCCCCCCSc1nc(NCCN(C)C)nc(SCCCCCCCCC)n1 [Compound S9S14D1] | 2.1% | 1.6% | 1.4% | 1.4% |
| CCCCCCCCCCCCCCCCSc1nc(NCCN(C)C)nc(SCCCCCCCCC)n1 [Compound S9S16D1] | 0.0% | 0.0% | 0.0% | 0.0% |
| CCCCCCCCCCCCSc1nc(NCCN(C)C)nc(SCCCCCCCCC)n1 [Compound S9S12D1] | 14.6% | 0.8% | 7.9% | 7.9% |
| CCCCCCCCCCCCCCCSc1nc(NCCN2CCCCC2)nc(SCCCCCCCCC)n1 [Compound S9S15D4] | 11.8% | 2.1% | 5.8% | 5.8% |
| CCCCCCCCCCCCCCSc1nc(NCCN2CCCCC2)nc(SCCCCCCCCC)n1 [Compound S9S14D4] | 7.2% | 0.7% | 3.6% | 3.6% |
| CCCCCCCCCCCCCCCSc1nc(NCCN(CC)CC)nc(SCCCCCCCCC)n1 [Compound S9S15D7] | 5.0% | 1.2% | 2.8% | 2.8% |
| CCCCCCCCCCCCCCCCSc1nc(NCCN2CCOCC2)nc(SCCCCCCCCC)n1 [Compound S9S16D2] | 1.5% | 0.0% | 0.7% | 0.7% |
| CCCCCCCCCCCCCCCSc1nc(NCCN2CCOCC2)nc(SCCCCCCCCC)n1 [Compound S9S15D2] | 10.6% | 0.0% | 5.9% | 5.9% |
